# Measurements published in PubChem BioAssay AID248 (DTP/NCI, 2004).
# Several values for one entry are separate records, joined by “and”; a condition that tells them apart may be missing. Equal values may be shown once. Toxic doses and inconclusive results are not listed.
# Test system: L1210 leukemia ip in BDF1 mice, survival T/C
# Assay: NCI In Vivo Anticancer Drug Screen. Data for tumor model L1210 Leukemia (intraperitoneal) in B6D2F1 (BDF1) mice
# Conditions: endpoint: mean survival time, higher = longer survival
# In short: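 Ratio derived from survival: compound-dosed mice over vehicle-dosed mice, all bearing a transplantable tumor.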
# [1] = dose: 100.0 mg/kg/injection, schedule: Q04DX002 (ip), vehicle: Klucel (hydroxypropylcellulose) (HPC)
# [2] = dose: 200.0 mg/kg/injection, schedule: Q04DX002 (ip), vehicle: Klucel (hydroxypropylcellulose) (HPC)
# [3] = dose: 100.0 mg/kg/injection, schedule: Q01DX001 (ip), vehicle: Klucel (hydroxypropylcellulose) (HPC)
# [4] = dose: 200.0 mg/kg/injection, schedule: Q01DX001 (ip), vehicle: Klucel (hydroxypropylcellulose) (HPC)
# [5] = dose: 400.0 mg/kg/injection, schedule: Q01DX001 (ip), vehicle: Klucel (hydroxypropylcellulose) (HPC)
# [6] = dose: 100.0 mg/kg/injection, schedule: Q04DX002 (ip), vehicle: saline with Tween-80
# [7] = dose: 200.0 mg/kg/injection, schedule: Q04DX002 (ip), vehicle: saline with Tween-80
# [8] = dose: 100.0 mg/kg/injection, schedule: Q01DX001 (ip), vehicle: carboxymethylcellulose (CMC)
# [9] = dose: 200.0 mg/kg/injection, schedule: Q01DX001 (ip), vehicle: carboxymethylcellulose (CMC)
# [10] = dose: 400.0 mg/kg/injection, schedule: Q01DX001 (ip), vehicle: carboxymethylcellulose (CMC)
# [11] = dose: 100.0 mg/kg/injection, schedule: Q01DX009 (ip), vehicle: Klucel (hydroxypropylcellulose) (HPC)
# [12] = dose: 200.0 mg/kg/injection, schedule: Q01DX009 (ip), vehicle: Klucel (hydroxypropylcellulose) (HPC)
# [13] = dose: 400.0 mg/kg/injection, schedule: Q01DX009 (ip), vehicle: Klucel (hydroxypropylcellulose) (HPC)
# [14] = dose: 100.0 mg/kg/injection, schedule: Q04DX003 (ip), vehicle: Klucel (hydroxypropylcellulose) (HPC)
# [15] = dose: 200.0 mg/kg/injection, schedule: Q04DX003 (ip), vehicle: Klucel (hydroxypropylcellulose) (HPC)
# [16] = dose: 400.0 mg/kg/injection, schedule: Q04DX003 (ip), vehicle: Klucel (hydroxypropylcellulose) (HPC)
# [17] = dose: 100.0 mg/kg/injection, schedule: Q01DX009 (ip), vehicle: other
# [18] = dose: 200.0 mg/kg/injection, schedule: Q01DX009 (ip), vehicle: other
# [19] = dose: 400.0 mg/kg/injection, schedule: Q01DX009 (ip), vehicle: other
compound,measurement,setting,value
COC1OC2COC(c3ccccc3)OC2C(OC)C1OC (configuration not stated),T/C,"dose: 12.5 mg/kg/injection, schedule: Q04DX002 (ip), vehicle: Klucel (hydroxypropylcellulose) (HPC)",100 % of control
same,T/C,"dose: 25.0 mg/kg/injection, schedule: Q04DX002 (ip), vehicle: Klucel (hydroxypropylcellulose) (HPC)",91 % of control
same,T/C,"dose: 50.0 mg/kg/injection, schedule: Q04DX002 (ip), vehicle: Klucel (hydroxypropylcellulose) (HPC)",103 % of control and 91 % of control
same,T/C,[1],108 % of control
same,T/C,[2],95 % of control
CCOC(=O)c1c(-c2ccccc2)cn2c1OC(C)CC2(C)C (configuration not stated),T/C,[3],105 % of control
same,T/C,[4],100 % of control
same,T/C,[5],93 % of control
CC#CCCC(=O)OCCC,T/C,[6],121 % of control
same,T/C,[7],93 % of control
same,T/C,"dose: 400.0 mg/kg/injection, schedule: Q04DX002 (ip), vehicle: saline with Tween-80",108 % of control
O=C(O)c1c(O)cc(=O)oc1-c1ccc(Cl)cc1,T/C,[8],87 % of control
same,T/C,[9],92 % of control
same,T/C,[10],100 % of control
COc1cc(NC(=O)Nc2cccc(C(C)=O)c2)c(OC)cc1Cl,T/C,[11],116 % of control
same,T/C,[12],110 % of control
same,T/C,[13],110 % of control
CCCCN(CCCC)c1ccc([N+](=O)[O-])c2no[n+]([O-])c12,T/C,"dose: 15.0 mg/kg/injection, schedule: Q04DX003 (ip), vehicle: saline with Tween-80",100 % of control
same,T/C,"dose: 30.0 mg/kg/injection, schedule: Q04DX003 (ip), vehicle: saline with Tween-80",100 % of control
same,T/C,"dose: 60.0 mg/kg/injection, schedule: Q04DX003 (ip), vehicle: saline with Tween-80",100 % of control
Cc1c(F)c(Br)c([N+](=O)[O-])c(C)c1[N+](=O)[O-],T/C,[3],96 % of control
same,T/C,[4],102 % of control
same,T/C,[5],102 % of control
CC[n+]1cccc(-c2ccc(NC(=O)/C=C/c3ccc(C(=O)Nc4ccc(-c5ccc[n+](CC)c5)cc4)cc3)cc2)c1,T/C,"dose: 7.1 mg/kg/injection, schedule: Q01DX001 (ip), vehicle: carboxymethylcellulose (CMC)",118 % of control
same,T/C,"dose: 12.5 mg/kg/injection, schedule: Q01DX Z (ip), vehicle: carboxymethylcellulose (CMC)",241 % of control
same,T/C,"dose: 25.0 mg/kg/injection, schedule: Q01DX001 (ip), vehicle: carboxymethylcellulose (CMC)",152 % of control and 157 % of control
same,T/C,"dose: 25.0 mg/kg/injection, schedule: Q01DX Z (ip), vehicle: carboxymethylcellulose (CMC)",211 % of control
same,T/C,"dose: 50.0 mg/kg/injection, schedule: Q01DX001 (ip), vehicle: carboxymethylcellulose (CMC)",202 % of control
same,T/C,"dose: 50.0 mg/kg/injection, schedule: Q01DX Z (ip), vehicle: carboxymethylcellulose (CMC)",164 % of control
same,T/C,[8],238 % of control
same,T/C,[9],263 % of control
same,T/C,"dose: 300.0 mg/kg/injection, schedule: Q01DX001 (ip), vehicle: carboxymethylcellulose (CMC)",120 % of control
same,T/C,"dose: 450.0 mg/kg/injection, schedule: Q01DX001 (ip), vehicle: carboxymethylcellulose (CMC)",124 % of control
same,T/C,"dose: 675.0 mg/kg/injection, schedule: Q01DX001 (ip), vehicle: carboxymethylcellulose (CMC)",107 % of control
Cc1cc2oc(/C=N/O)c(C)c2cc1C,T/C,[11],99 % of control
same,T/C,[12],96 % of control
same,T/C,[13],90 % of control
C1CC(C2OCOC3COCOC32)OO1 (configuration not stated),T/C,"dose: 222.0 mg/kg/injection, schedule: Q01DX Z (ip), vehicle: methylcellulose (MC)",89 % of control
same,T/C,"dose: 333.0 mg/kg/injection, schedule: Q01DX Z (ip), vehicle: methylcellulose (MC)",104 % of control
same,T/C,"dose: 500.0 mg/kg/injection, schedule: Q01DX Z (ip), vehicle: methylcellulose (MC)",92 % of control
CC(C)=CC=O,T/C,"dose: 100.0 mg/kg/injection, schedule: Q01DX009 (ip), vehicle: saline sonified",97 % of control
same,T/C,"dose: 100.0 mg/kg/injection, schedule: Q04DX003 (ip), vehicle: saline",96 % of control
same,T/C,"dose: 200.0 mg/kg/injection, schedule: Q01DX009 (ip), vehicle: saline sonified",100 % of control
same,T/C,"dose: 200.0 mg/kg/injection, schedule: Q04DX003 (ip), vehicle: saline",97 % of control
same,T/C,"dose: 400.0 mg/kg/injection, schedule: Q04DX003 (ip), vehicle: saline",103 % of control
O=C(Cl)C1(Br)CC2c3ccccc3C1([N+](=O)[O-])c1ccccc12 (configuration not stated),T/C,[11],88 % of control
same,T/C,[14],108 % of control
same,T/C,[12],91 % of control
same,T/C,[15],95 % of control
same,T/C,[13],96 % of control
same,T/C,[16],104 % of control
Cc1ccc(O)c(C)n1,T/C,"dose: 66.0 mg/kg/injection, schedule: Q01DX009 (ip), vehicle: saline",98 % of control
same,T/C,"dose: 150.0 mg/kg/injection, schedule: Q01DX009 (ip), vehicle: saline",97 % of control
same,T/C,"dose: 200.0 mg/kg/injection, schedule: Q01DX009 (ip), vehicle: saline",93 % of control
same,T/C,"dose: 400.0 mg/kg/injection, schedule: Q01DX009 (ip), vehicle: saline",102 % of control
CCCCc1cn(C(C)=O)nn1,T/C,[6],106 % of control
same,T/C,[7],100 % of control
CC(C)(C)CC(C)(C)NCc1ccccc1,T/C,"dose: 25.0 mg/kg/injection, schedule: Q04DX003 (ip), vehicle: saline with Tween-80",103 % of control
same,T/C,"dose: 50.0 mg/kg/injection, schedule: Q04DX003 (ip), vehicle: saline with Tween-80",92 % of control
same,T/C,"dose: 100.0 mg/kg/injection, schedule: Q04DX003 (ip), vehicle: saline with Tween-80",103 % of control
O=NC12CCCCC1C(O)c1cc(Cl)cc(Cl)c1O2 (configuration not stated),T/C,[17],119 % of control
same,T/C,[14],101 % of control
same,T/C,[18],95 % of control
same,T/C,[15],95 % of control
same,T/C,[19],89 % of control
same,T/C,[16],102 % of control
CC(C)(C)CC(C)(C)N=Cc1ccccc1,T/C,"dose: 100.0 mg/kg/injection, schedule: Q01DX001 (ip), vehicle: saline",98 % of control
same,T/C,"dose: 200.0 mg/kg/injection, schedule: Q01DX001 (ip), vehicle: saline",105 % of control
same,T/C,"dose: 400.0 mg/kg/injection, schedule: Q01DX001 (ip), vehicle: saline",88 % of control
COc1ccc(NC(=O)CCCc2ccc(N(CCCl)CCCl)cc2)cc1,T/C,"dose: 4.0 mg/kg/injection, schedule: Q12HX018 (ip), vehicle: other",106 % of control
same,T/C,"dose: 6.0 mg/kg/injection, schedule: Q12HX018 (ip), vehicle: other",121 % of control
same,T/C,"dose: 8.0 mg/kg/injection, schedule: Q12HX018 (ip), vehicle: other",110 % of control
C/C(=C\CN1C(=O)CCCC1=O)CCC(=O)O,T/C,[17],90 % of control
same,T/C,"dose: 100.0 mg/kg/injection, schedule: Q04DX003 (ip), vehicle: other",102 % of control
same,T/C,[18],98 % of control
same,T/C,"dose: 200.0 mg/kg/injection, schedule: Q04DX003 (ip), vehicle: other",91 % of control
same,T/C,[19],93 % of control
same,T/C,"dose: 400.0 mg/kg/injection, schedule: Q04DX003 (ip), vehicle: other",93 % of control
Nn1cnc2c(ncn2C2OC(CO)C(O)C2O)c1=O (configuration not stated),T/C,"dose: 100.0 mg/kg/injection, schedule: Q01DX005 (ip), vehicle: saline",88 % of control
same,T/C,"dose: 200.0 mg/kg/injection, schedule: Q01DX005 (ip), vehicle: saline",100 % of control
CN(C(=O)/C=C\c1ccccc1)c1ccccc1,T/C,[1],104 % of control
same,T/C,[2],104 % of control
same,T/C,"dose: 400.0 mg/kg/injection, schedule: Q04DX002 (ip), vehicle: Klucel (hydroxypropylcellulose) (HPC)",104 % of control
O=C(Cc1ccccc1[N+](=O)[O-])NCCc1ccc2c(c1)OCO2,T/C,"dose: 100.0 mg/kg/injection, schedule: Q01DX001 (ip), vehicle: other",86 % of control
same,T/C,"dose: 200.0 mg/kg/injection, schedule: Q01DX001 (ip), vehicle: other",89 % of control
same,T/C,"dose: 400.0 mg/kg/injection, schedule: Q01DX001 (ip), vehicle: other",89 % of control
c1ccc(C2=C(c3ccccc3)CC2)cc1,T/C,"dose: 50.0 mg/kg/injection, schedule: Q01DX001 (ip), vehicle: Klucel (hydroxypropylcellulose) (HPC)",104 % of control
same,T/C,[3],98 % of control
same,T/C,[4],108 % of control
O=C1COC2CCCCC2O1 (configuration not stated),T/C,[8],108 % of control
same,T/C,[9],101 % of control
same,T/C,[10],106 % of control
